We go through five compounds from BindingDB's records for doi:10.7270/Q29P301W (University of Pittsburgh, 2006).

This test concerns the target T1, Dual specificity protein phosphatase 6 (Rattus norvegicus, UniProt Q64346).
T1 sequence (Q64346 whole entry): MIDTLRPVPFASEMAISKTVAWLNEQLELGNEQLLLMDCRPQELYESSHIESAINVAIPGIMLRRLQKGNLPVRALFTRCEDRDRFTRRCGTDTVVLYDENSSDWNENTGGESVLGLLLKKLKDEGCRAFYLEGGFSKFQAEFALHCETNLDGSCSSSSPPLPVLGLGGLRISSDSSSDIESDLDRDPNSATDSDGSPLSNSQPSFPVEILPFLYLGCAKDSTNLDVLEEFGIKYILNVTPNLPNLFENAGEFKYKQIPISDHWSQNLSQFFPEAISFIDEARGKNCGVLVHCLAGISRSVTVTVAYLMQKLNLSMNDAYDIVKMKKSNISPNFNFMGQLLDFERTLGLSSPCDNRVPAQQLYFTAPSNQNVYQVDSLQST
The test is described as follows: DUSP6 inhibitors, confirmatory specificity test, biochemical, cell-free, concentration-response (AID 452).

`CCn1nc(-c2ccccc2)nc2c(=O)n(C)c(=O)nc1-2` [1-Ethyl-6-methyl-3-phenyl-1H-pyrimido[5,4-e][1,2,4]triazine-5,7-dione] had an IC50 of 0.159 µM.
Take `CCCCC[C@H](O)C=C[C@H]1C=CC(=O)[C@@H]1C/C=C\CCCC(=O)O` [(Z)-7-[(1R,5S)-2-oxidanylidene-5-[(E,3S)-3-oxidanyloct-1-enyl]cyclopent-3-en-1-yl]hept-5-enoic acid]: the IC50 was over 50 µM.
With `CC(C)Cn1c(N)c(C(=O)COC(=O)c2cc(-c3ccco3)nc3ccccc23)c(=O)n(C)c1=O` [2-(2-furanyl)-4-quinolinecarboxylic acid [2-[4-amino-1-methyl-3-(2-methylpropyl)-2,6-dioxo-5-pyrimidinyl]-2-oxoethyl] ester] the figure was over 50 µM; with `COc1ccc(Cn2c(C)nc3c(c2=O)c2nc4ccccc4nc2n3Cc2ccco2)cc1` [MLS000079944], 41.2 µM.
With `Cc1ccc2c(c1C)NC(C(=O)O)C1CC=CC21` (stereo not given) the figure was over 50 µM.

The term IC50 denotes the concentration at which inhibition is half-maximal. Read a low IC50 as inhibition by little substance.
